# Results taken from PMC4933725, “Traxoprodil, a selective antagonist of the NR2B subunit of the NMDA receptor, potentiates the antidepressant-like effects of certain antidepressant drugs in the forced swim test in mice” (Metabolic Brain Disease, 2016).
# Where a name gives a salt, the structure may show the parent alone.
# Tests used:
# mice [1] = experiment: Forced swim test (FST) in mice; type: in vivo, Albino Swiss mice; conditions: for immobility time in FST vs control group: Fig. 1
# Method: Each mouse was placed individually into a glass cylinder (height 25 cm, diameter 10 cm) containing 12–15 cm of water at 23–25 °C. The animal was left in the cylinder for 6 min. The total duration of immobility was recorded during the last 4 min of the 6-min testing period. The mouse was judged to be immobile when it ceased struggling and remained floating motionless in the water, making only the movements necessary to keep its head above the water level.
# mice [2] = experiment: Spontaneous locomotor activity (Opto-Varimex-4 Auto-Track); type: in vivo, Albino Swiss mice; conditions: for Distance traveled: mean ± SEM; for effects on locomotor activity: administered either alone or combined together, doses of Table 2 (traxoprodil 10 and 20 mg/kg), two-way ANOVA
# Method: In order to avoid the risk of obtaining the false positive/negative effects in the FST caused by a possible influence of the tested drugs on the locomotor activity, spontaneous locomotor activity was measured using an animal activity meter Opto-Varimex-4 Auto-Track (Columbus Instruments, USA). The device consists of four transparent cages with a lid (43 × 43 × 32 cm), a set of four infrared emitters (each emitter has 16 laser beams), and four detectors monitoring animal movements. Each mouse was placed individually into the cage for 10 min. Spontaneous locomotor activity was evaluated between the 2nd and the 6th min, which corresponds with the time interval analyzed in the FST.
# The results obtained in this test were presented as an arithmetic average distance (given in cm) traveled by a mouse ± SEM for each experimental group.
# [3] = Determination of antidepressants and traxoprodil in brains by HPLC; conditions: for Antidepressants concentration in brain / concentration at 60 min: 60 min before decapitation, mean ± SEM; for change of concentration in brain tissue after joint administration with traxoprodil: traxoprodil 10 mg/kg co-administered, Student's t-test vs drug + saline; for concentration at 60 min: Albino Swiss, mouse, brain, intraperitoneal
# Method: Sixty minutes following administration of studied antidepressant drugs with or without traxoprodil, mice were decapitated to collect brains for pharmacokinetic studies. Immediately after the decapitation, the brains were dissected from the skull, washed with 0.9 % NaCl and frozen at −25 °C.
# Brain concentrations of the studied antidepressants and traxoprodil were assayed by high performance liquid chromatography (HPLC) methods. The brains were homogenized in distilled water (1 : 4, w/v) with a tissue homogenizer TH220 (Omni International, Inc., Warrenton, VA, USA). For all studied antidepressant drugs, the extraction from brain homogenates were performed using the mixture of ethyl acetate : hexane (30 : 70, v/v). Amitriptyline (2 μg/ml) was used as an internal standard (IS) for imipramine and paroxetine (200 ng/ml) for fluoxetine and escitalopram. In order to isolate imipramine and its metabolite desipramine, to brain homogenate (0.5 ml) containing these drugs the IS was added and the samples were alkalized with 250 μl of 4 M NaOH. Then the samples were extracted with 5 ml of the extraction reagent by shaking for 20 min (IKA Vibrax VXR, Germany). After centrifugation at 3000 rpm for 20 min (Universal 32, Hettich, Germany), the organic layer was transferred to a new tube containing a 200 μl solution of 0.1 M H2SO4 and methanol (90 : 10, v/v), shaken for 0.5 h and then centrifuged for 15 min (3000 rpm). The organic layer was discarded and a 50 μl aliquot of the acidic solution was injected into the HPLC system. In the case of escitalopram, the procedure was similar with the exception that the extraction with an organic reagent was repeated two times, 1 ml of brain homogenate was used, and the volume of the acidic phase was 100 μl. In turn, to 1 ml of brain homogenates containing fluoxetine the IS was added and the samples were alkalized with 500 μl of 4 M NaOH. After the addition of 1 ml of the concentrated NaCl solution (10 g/50 ml), the samples were vortexed for 15 s and 5 ml of the extraction reagent was added. Then the samples were shaken for 20 min and centrifuged for 15 min at 3000 rpm. After the centrifugation, the organic layer was transferred into a conical glass tube and evaporated to dryness at 37 °C under a gentle stream of nitrogen in a water bath. The residue was dissolved with 100 μl of methanol and 50 μl of this solution was injected into the HPLC system.
# The HPLC system (Thermo Separation Products, San Jose, CA, USA) consisted of a P100 isocratic pump, a UV100 variable-wavelength UV/VIS detector, a Rheodyne 7125 injector (Rheodyne, Cotati, CA, USA) with a 50 μl sample loop, and a Chromjet SP4400 computing integrator.
# All analyses were performed on a 250 × 4.0 mm LiChrospher®100 RP-18 column with a particle size of 5 μm (Merck, Darmstadt, Germany) protected with a guard column (4 × 4 mm) with the same packing material. The mobile phase consisting of 50 mM potassium dihydrogen phosphate buffer (pH = 4.5) and acetonitrile was mixed at a ratio of 60 : 40 (v/v) for imipramine and fluoxetine, and 65 : 35 (v/v) for escitalopram and run at 1 ml/min. Chromatographic analysis was carried out at 21 °C and the analytical wavelength of 227 nm for fluoxetine, 240 nm for escitalopram, and 214 nm for imipramine.
# In order to determine traxoprodil concentrations in mice brain, to 1 ml of brain homogenate containing this compound 2 ml of methanol was added and the samples were briefly vortexed and then shaken vigorously for 10 min (IKA Vibrax VXR, Germany) to precipitate proteins. After centrifugation for 20 min at 3000 rpm the supernatant (2 ml) was transferred into a conical glass tube and evaporated to dryness at 45 °C under a gentle stream of nitrogen in a water bath. The residue was dissolved with 100 μl of methanol and 40 μl of this solution were injected into the HPLC system.
# mice [4] = test system: mice; design: method as in Poleszak et al. [2013]; conditions: ref Poleszak et al. [2013]; cited from earlier work
smiles,measurement,setting,value
"N[C@@H](Cc1ccc(Cl)cc1)C(=O)O (racemic) [p-CPA, p-chlorophenylalanine]",immobility time in FST,"mice [1]; p-CPA 200 mg/kg i.p. per 3 days, alone, Fig. 3a",no effect
same,Distance traveled,mice [2]; Table 2 (E): p-CPA 200 mg/kg i.p. once daily over three days + saline,656.4 ± 107.4 cm
same,effects on locomotor activity,mice [2],no statistically significant effects
"COc1ccccc1N1CCN(CCN(C(=O)C2CCCCC2)c2ccccn2)CC1 [WAY 100,635]",immobility time in FST,"mice [1]; WAY 100,635 0.1 mg/kg i.p. alone, Fig. 3b",no effect
same,Distance traveled,mice [2]; Table 2 (F): WAY 0.1 mg/kg + saline i.p.,639.0 ± 59.16 cm
same,effects on locomotor activity,mice [2],no statistically significant effects
CNCCCN1c2ccccc2CCc2ccccc21 [desipramine],Antidepressants concentration in brain,"[3]; imipramine 15 mg/kg + saline i.p., n=10",(101.0 ± 19.86) ng/g
same,Antidepressants concentration in brain,"[3]; imipramine 15 mg/kg + traxoprodil 10 mg/kg i.p., n=10",(724.0 ± 109.0***) ng/g
same,change of concentration in brain tissue after joint administration with traxoprodil,[3],significant increase
"CN(C)CCC[C@@]1(c2ccc(F)cc2)OCc2cc(C#N)ccc21 [escitalopram, escitalopram oxalate]",immobility time in FST,"mice [1]; escitalopram 2 mg/kg given alone i.p., Fig. 2c",no effect
same,Distance traveled,mice [2]; Table 2 (C): escitalopram 2 mg/kg + saline i.p.,957.1 ± 174.1 cm
same,effects on locomotor activity,mice [2],no statistically significant effects
same,concentration at 60 min,"[3]; 2 mg/kg, Antidepressants concentration in brain, escitalopram 2 mg/kg + saline i.p., n=10",296 ± 17.7 ng/g
same,concentration at 60 min,"[3]; Antidepressants concentration in brain, escitalopram 2 mg/kg + traxoprodil 10 mg/kg i.p., n=10",361 ± 20.5 ng/g
same,change of concentration in brain tissue after joint administration with traxoprodil,[3],significant increase
"CNCCC(Oc1ccc(C(F)(F)F)cc1)c1ccccc1 (centres unmarked) [fluoxetine, fluoxetine hydrochloride]",immobility time in FST,"mice [1]; fluoxetine 5 mg/kg given alone i.p., Fig. 2b",no effect
same,Distance traveled,mice [2]; Table 2 (B): fluoxetine 5 mg/kg + saline i.p.,667.8 ± 111.1 cm
same,effects on locomotor activity,mice [2],no statistically significant effects
CC(C(O)c1ccc(O)cc1)N1CCC(Cc2ccccc2)CC1 (centres unmarked) [ifenprodil],dose range with antidepressant effect in the FST,mice [4],20 to 40 mg/kg
"CN(C)CCCN1c2ccccc2CCc2ccccc21 [imipramine, imipramine hydrochloride]",immobility time in FST,"mice [1]; imipramine 15 mg/kg given alone i.p., Fig. 2a",no effect
same,Distance traveled,mice [2]; Table 2 (A): imipramine 15 mg/kg + saline i.p.,492.3 ± 57.11 cm
same,effects on locomotor activity,mice [2],no statistically significant effects
same,Distance traveled,"mice [2]; imipramine 30 mg/kg i.p. 60 min before test, 2nd-6th min, n=8, Table 1",653.9 ± 99.38 cm
same,concentration at 60 min,"[3]; 15 mg/kg, Antidepressants concentration in brain, imipramine 15 mg/kg + saline i.p., n=10",2060 ± 253 ng/g
same,concentration at 60 min,"[3]; Antidepressants concentration in brain, imipramine 15 mg/kg + traxoprodil 10 mg/kg i.p., n=10",3210 ± 374 ng/g
"CCOc1ccccc1OC(c1ccccc1)C1CNCCO1 (centres unmarked) [reboxetine, reboxetine mesylate]",immobility time in FST,"mice [1]; reboxetine 2.5 mg/kg given alone i.p., Fig. 2d",no effect
same,Distance traveled,mice [2]; Table 2 (D): reboxetine 2.5 mg/kg + saline i.p.,566.1 ± 54.75 cm
Cc1nc2sccn2c(=O)c1CCN1CCC(=C(c2ccc(F)cc2)c2ccc(F)cc2)CC1 [ritanserin],immobility time in FST,"mice [1]; ritanserin 4 mg/kg i.p. alone, Fig. 3c",no effect
same,Distance traveled,mice [2]; Table 2 (G): ritanserin 4 mg/kg + saline i.p.,607.5 ± 79.78 cm
same,effects on locomotor activity,mice [2],no statistically significant effects
C[C@@H]([C@@H](O)c1ccc(O)cc1)N1CCC(O)(c2ccccc2)CC1 [traxoprodil],FST effect compared with imipramine at an active dose,mice [1]; highest traxoprodil dose used (40 mg/kg) vs imipramine 30 mg/kg,effect similar to the action of imipramine
same,immobility time in FST vs control group,mice [1]; traxoprodil 5 mg/kg i.p. 60 min before test,no statistically significant effect
same,immobility time in FST,"mice [1]; traxoprodil 10 mg/kg given alone i.p., Fig. 2a",no effect
same,immobility time in FST vs control group,mice [1]; traxoprodil 10 mg/kg i.p. 60 min before test,no statistically significant effect
same,immobility time in FST vs control group,mice [1]; traxoprodil 20 mg/kg i.p. 60 min before test,significantly reduced
same,immobility time in FST,"mice [1]; traxoprodil 20 mg/kg i.p., WAY 100,635 experiment, Fig. 3b",significantly reduced
same,immobility time in FST,"mice [1]; traxoprodil 20 mg/kg i.p., p-CPA experiment, Fig. 3a",significantly reduced
same,immobility time in FST,"mice [1]; traxoprodil 20 mg/kg i.p., ritanserin experiment, Fig. 3c",significantly reduced
same,immobility time in FST vs control group,mice [1]; traxoprodil 40 mg/kg i.p. 60 min before test,significantly reduced
same,Distance traveled,mice [2]; Table 2 (A): traxoprodil 10 mg/kg + saline i.p.,629.1 ± 79.29 cm
same,Distance traveled,mice [2]; Table 2 (B): traxoprodil 10 mg/kg + saline i.p.,629.1 ± 79.29 cm
same,Distance traveled,mice [2]; Table 2 (C): traxoprodil 10 mg/kg + saline i.p.,986.8 ± 278.5 cm
same,Distance traveled,mice [2]; Table 2 (D): traxoprodil 10 mg/kg + saline i.p.,629.1 ± 79.29 cm
same,Distance traveled,mice [2]; Table 2 (E): traxoprodil 20 mg/kg + saline i.p.,731.1 ± 145.1 cm
same,Distance traveled,mice [2]; Table 2 (F): traxoprodil 20 mg/kg + saline i.p.,687.5 ± 71.45 cm
same,Distance traveled,mice [2]; Table 2 (G): traxoprodil 20 mg/kg + saline i.p.,687.5 ± 71.45 cm
same,effects on locomotor activity,mice [2],no statistically significant effects
same,effect on locomotor activity versus control group,"mice [2]; all tested doses (5, 10, 20, and 40 mg/kg), one-way ANOVA",no statistically significant effect
same,Distance traveled,"mice [2]; traxoprodil 5 mg/kg i.p. 60 min before test, 2nd-6th min, n=8, Table 1",915.0 ± 92.10 cm
same,Distance traveled,"mice [2]; traxoprodil 10 mg/kg i.p. 60 min before test, 2nd-6th min, n=8, Table 1",738.5 ± 49.93 cm
same,Distance traveled,"mice [2]; traxoprodil 20 mg/kg i.p. 60 min before test, 2nd-6th min, n=8, Table 1",912.0 ± 75.87 cm
same,Distance traveled,"mice [2]; traxoprodil 40 mg/kg i.p. 60 min before test, 2nd-6th min, n=8, Table 1",789.1 ± 119.8 cm
same,concentration at 60 min,"[3]; 10 mg/kg, Traxoprodil concentration in brain, traxoprodil 10 mg/kg + saline ip, n=7–8",76.4 ± 13.5 ng/g
same,concentration at 60 min,"[3]; Traxoprodil concentration in brain, traxoprodil 10 mg/kg + escitalopram 2 mg/kg ip",249 ± 49.2 ng/g
same,concentration at 60 min,"[3]; Traxoprodil concentration in brain, traxoprodil 10 mg/kg + fluoxetine 5 mg/kg ip",151 ± 10.3 ng/g
same,concentration at 60 min,"[3]; Traxoprodil concentration in brain, traxoprodil 10 mg/kg + imipramine 15 mg/kg ip",119 ± 22.5 ng/g
same,change of traxoprodil concentration in brain,"[3]; joint administration with escitalopram vs traxoprodil group, t-test p < 0.01",significant increase
same,change of traxoprodil concentration in brain,"[3]; joint administration with fluoxetine vs traxoprodil group, t-test p < 0.001",significant increase
same,change of traxoprodil concentration in brain,"[3]; joint administration with imipramine vs traxoprodil group, t-test p > 0.05",No statistically significant changes
